Measurements published in patent US8546588B2, “Substituted hydroxamic acids and uses thereof” (Millennium Pharmaceuticals, Inc., priority 2010, dated 2013).

Biological target: T1, purified human HDAC6 (Homo sapiens, UniProt Q9UBN7)
T1 construct: purchased BPS Bioscience 5006
T1 sequence (Q9UBN7 1-1215): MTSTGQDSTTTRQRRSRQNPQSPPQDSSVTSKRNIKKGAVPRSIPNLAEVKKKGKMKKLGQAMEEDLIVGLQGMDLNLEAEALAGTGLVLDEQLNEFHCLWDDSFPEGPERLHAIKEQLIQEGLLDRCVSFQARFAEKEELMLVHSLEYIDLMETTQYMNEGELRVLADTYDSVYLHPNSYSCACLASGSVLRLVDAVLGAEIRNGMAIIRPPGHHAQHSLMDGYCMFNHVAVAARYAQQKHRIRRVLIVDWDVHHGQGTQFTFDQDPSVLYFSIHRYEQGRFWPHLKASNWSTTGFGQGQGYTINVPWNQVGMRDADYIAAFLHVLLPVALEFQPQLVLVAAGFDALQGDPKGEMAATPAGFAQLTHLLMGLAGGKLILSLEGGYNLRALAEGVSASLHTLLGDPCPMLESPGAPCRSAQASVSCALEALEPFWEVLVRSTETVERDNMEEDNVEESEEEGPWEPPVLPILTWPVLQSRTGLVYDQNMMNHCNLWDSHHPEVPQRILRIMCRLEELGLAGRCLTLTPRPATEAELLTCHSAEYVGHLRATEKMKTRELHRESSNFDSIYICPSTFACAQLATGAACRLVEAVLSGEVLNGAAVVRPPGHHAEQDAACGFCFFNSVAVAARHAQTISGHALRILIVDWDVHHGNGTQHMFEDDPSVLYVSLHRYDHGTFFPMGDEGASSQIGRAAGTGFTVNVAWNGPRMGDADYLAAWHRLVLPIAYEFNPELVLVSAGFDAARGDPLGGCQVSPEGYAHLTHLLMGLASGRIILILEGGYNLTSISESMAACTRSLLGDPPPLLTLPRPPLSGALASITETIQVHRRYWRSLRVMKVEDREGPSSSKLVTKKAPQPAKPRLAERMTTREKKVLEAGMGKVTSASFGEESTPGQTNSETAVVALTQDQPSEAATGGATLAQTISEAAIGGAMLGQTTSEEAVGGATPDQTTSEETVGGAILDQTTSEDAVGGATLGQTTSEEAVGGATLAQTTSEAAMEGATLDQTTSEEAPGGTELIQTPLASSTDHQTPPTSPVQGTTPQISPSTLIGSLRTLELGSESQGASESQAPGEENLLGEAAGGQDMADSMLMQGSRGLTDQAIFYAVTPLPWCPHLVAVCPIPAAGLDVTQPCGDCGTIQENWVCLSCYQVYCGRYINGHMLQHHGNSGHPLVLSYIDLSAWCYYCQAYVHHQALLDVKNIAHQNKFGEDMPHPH
Assay: HDAC6 Enzyme Assay
Type: biochemical
Conditions: substrate Ac-Arg-Gly-Lys(Ac)-AMC peptide, 1 hour at 30° C.
Method: To measure the inhibition of HDAC6 activity, purified human HDAC6 (BPS Bioscience; Cat. No. 5006) is incubated with substrate Ac-Arg-Gly-Lys(Ac)-AMC peptide (Bachem Biosciences; Cat. No. I-1925) for 1 hour at 30° C. in the presence of test compounds or vehicle DMSO control. The reaction is stopped with the HDAC inhibitor trichostatin A (Sigma; Cat. No. T8552) and the amount of Arg-Gly-Lys-AMC generated is quantitated by digestion with trypsin (Sigma; Cat. No. T1426) and subsequent measurement of the amount of AMC released using a fluorescent plate reader (Pherastar; BMG Technologies) set at Ex 340 nm and Em 460 nm. Concentration response curves are generated by calculating the fluorescence increase in test compound-treated samples relative to DMSO-treated controls, and enzyme inhibition (IC50) values are determined from those curves.

SMILES	IC50
C[C@H](NC(=O)C(C)(C)C)c1ncc(C(=O)NO)s1 [Compound I-183, 2-{(1S)-1-[(2,2-dimethylpropanoyl)amino]ethyl}-N-hydroxy-1,3-thiazole-5-carboxamide]	> 500 nM
CC(NC(=O)Nc1ccccc1-c1ccccc1)c1ccc(C(=O)NO)s1 (stereo not shown) [Compound I-27, 5-(1-{[(biphenyl-2-ylamino)carbonyl]amino}ethyl)-N-hydroxythiophene-2-carboxamide]	100 to 500 nM
C[C@@H](NC(=O)C12CC3CC(CC(C3)C1)C2)c1ccc(C(=O)NO)s1 [Compound I-11, 5-{(1R)-1-[(1-adamantylcarbonyl)amino]ethyl}-N-hydroxythiophene-2-carboxamide]	> 500 nM
Cc1nc(-c2ccccn2)sc1C(=O)N[C@H](C)c1cc(C(=O)NO)cn1C [Compound I-156, N-((1R)-1-{4-[(hydroxyamino)carbonyl]-1-methyl-1H-pyrrol-2-yl}ethyl)-4-methyl-2-pyridin-2-yl-1,3-thiazole-5-carboxamide]	> 500 nM
Cc1noc(-c2ccccc2)c1NC(=O)NC(C)c1ccc(C(=O)NO)s1 (stereo not shown) [Compound I-41, N-hydroxy-5-[1-({[(3-methyl-5-phenylisoxazol-4-yl)amino]carbonyl}amino)ethyl]thiophene-2-carboxamide]	100 to 500 nM
C[C@H](NC(=O)c1ccc(S(C)(=O)=O)cc1)c1ncc(C(=O)NO)s1 [Compound I-177, N-hydroxy-2-((1S)-1-{[4-(methylsulfonyl)benzoyl]amino}ethyl)-1,3-thiazole-5-carboxamide]	100 to 500 nM
C[C@H](NC(=O)C1(C)CCCCC1)c1ncc(C(=O)NO)s1 [Compound I-171, N-hydroxy-2-((1S)-1-{[(1-methylcyclohexyl)carbonyl]amino}ethyl)-1,3-thiazole-5-carboxamide]	> 500 nM
C[C@@H](NC(=O)c1ccc(-c2ccccc2)cc1)c1cc(C(=O)NO)on1 [Compound I-158, 3-{(1R)-1-[(biphenyl-4-ylcarbonyl)amino]ethyl}-N-hydroxyisoxazole-5-carboxamide]	> 500 nM
Cc1cccc(NC(=O)NC(C)c2ccc(C(=O)NO)s2)c1 (stereo not shown) [Compound I-30, N-hydroxy-5-[1-({[(3-methylphenyl)amino]carbonyl}amino)ethyl]thiophene-2-carboxamide]	< 100 nM
CC(NC(=O)Nc1c(F)cccc1F)c1ccc(C(=O)NO)s1 (stereo not shown) [Compound I-20, 5-[1-({[(2,6-difluorophenyl)amino]carbonyl}amino)ethyl]-N-hydroxythiophene-2-carboxamide]	100 to 500 nM
C[C@@H](NC(=O)C12CC3CC(CC(C3)C1)C2)c1cc(C(=O)NO)on1 [Compound I-170, 3-{(1R)-1-[(1-adamantylcarbonyl)amino]ethyl}-N-hydroxyisoxazole-5-carboxamide]	> 500 nM
CC(NC(=O)c1ccc(OCc2ccccc2)cc1)c1ncc(C(=O)NO)s1 (stereo not shown) [Compound I-49, 2-(1-{[4-(benzyloxy)benzoyl]amino}ethyl)-N-hydroxy-1,3-thiazole-5-carboxamide]	< 100 nM
C[C@@H](NC(=O)c1cc2ccccc2o1)c1ccc(C(=O)NO)s1 [Compound I-39, N-((1R)-1-{5-[(hydroxyamino)carbonyl]-2-thienyl}ethyl)-1-benzofuran-2-carboxamide]	< 100 nM
CC(NC(=O)NC1CCCCC1)c1ccc(C(=O)NO)s1 (stereo not shown) [Compound I-24, 5-(1-{[(cyclohexylamino)carbonyl]amino}ethyl)-N-hydroxythiophene-2-carboxamide]	100 to 500 nM

Second part, the compound after the results:

IC50	SMILES
< 100 nM	CC(NC(=O)Nc1cc(C(F)(F)F)ccc1F)c1ccc(C(=O)NO)s1 (stereo not shown) [Compound I-7, 5-{1-[({[2-fluoro-5-(trifluoromethyl)phenyl]amino}carbonyl)amino]ethyl}-N-hydroxythiophene-2-carboxamide]
< 100 nM	CC(NC(=O)c1cc2cc(Cl)ccc2o1)c1ncc(C(=O)NO)s1 (stereo not shown) [Compound I-50, 2-(1-{[(5-chloro-1-benzofuran-2-yl)carbonyl]amino}ethyl)-N-hydroxy-1,3-thiazole-5-carboxamide]
< 100 nM	C[C@@H](NC(=O)c1cc2ccccc2s1)c1ccc(C(=O)NO)s1 [Compound I-16, N-((1R)-1-{5-[(hydroxyamino)carbonyl]-2-thienyl}ethyl)-1-benzothiophene-2-carboxamide]
< 100 nM	C[C@@H](NC(=O)c1cc2ccccc2o1)c1ncc(C(=O)NO)s1 [Compound I-165, 2-{(1R)-1-[(1-benzofuran-2-ylcarbonyl)amino]ethyl}-N-hydroxy-1,3-thiazole-5-carboxamide]
< 100 nM	COc1ccc(C(=O)N[C@H](C)c2ccc(C(=O)NO)s2)cc1 [Compound I-9, N-hydroxy-5-{(1R)-1-[(4-methoxybenzoyl)amino]ethyl}thiophene-2-carboxamide]
< 100 nM	Cc1ccc(NC(=O)NC(C)c2ccc(C(=O)NO)s2)cc1C (stereo not shown) [Compound I-38, 5-[1-({[(3,4-dimethylphenyl)amino]carbonyl}amino)ethyl]-N-hydroxythiophene-2-carboxamide]
< 100 nM	CC(NC(=O)NCc1ccccc1)c1ccc(C(=O)NO)s1 (stereo not shown) [Compound I-18, 5-(1-{[(benzylamino)carbonyl]amino}ethyl)-N-hydroxythiophene-2-carboxamide]
< 100 nM	C[C@@H](NC(=O)c1cc2ccccc2n1C)c1ccc(C(=O)NO)s1 [Compound I-5, N-((1R)-1-{5-[(hydroxyamino)carbonyl]-2-thienyl}ethyl)-1-methyl-1H-indole-2-carboxamide]
< 100 nM	CC(NC(=O)Nc1ccc(OC(F)F)cc1)c1ccc(C(=O)NO)s1 (stereo not shown) [Compound I-37, 5-{1-[({[4-(difluoromethoxy)phenyl]amino}carbonyl)amino]ethyl}-N-hydroxythiophene-2-carboxamide]
< 100 nM	C[C@@H](NC(=O)c1cc(Cl)c(Cl)n1C)c1ccc(C(=O)NO)s1 [Compound I-17, 4,5-dichloro-N-((1R)-1-{5-[(hydroxyamino)carbonyl]-2-thienyl}ethyl)-1-methyl-1H-pyrrole-2-carboxamide]
< 100 nM	Cc1nc(-c2ccccn2)sc1C(=O)N[C@@H](C)c1ncc(C(=O)NO)s1 [Compound I-168, N-((1S)-1-{5-[(hydroxyamino)carbonyl]-1,3-thiazol-2-yl}ethyl)-4-methyl-2-pyridin-2-yl-1,3-thiazole-5-carboxamide]
< 100 nM	C[C@@H](NC(=O)c1cccn1C)c1ccc(C(=O)NO)s1 [Compound I-29, N-((1R)-1-{5-[(hydroxyamino)carbonyl]-2-thienyl}ethyl)-1-methyl-1H-pyrrole-2-carboxamide]
< 100 nM	C[C@@H](NC(=O)c1ccc(-c2ccccc2)cc1)c1ccc(C(=O)NO)s1 [Compound I-46, 5-{(1R)-1-[(biphenyl-4-ylcarbonyl)amino]ethyl}-N-hydroxythiophene-2-carboxamide]
< 100 nM	Cc1ccccc1CNC(=O)NC(C)c1ccc(C(=O)NO)s1 (stereo not shown) [Compound I-42, N-hydroxy-5-[1-({[(2-methylbenzyl)amino]carbonyl}amino)ethyl]thiophene-2-carboxamide]
< 100 nM	COc1ccc(C)cc1NC(=O)NC(C)c1ccc(C(=O)NO)s1 (stereo not shown) [Compound I-19, N-hydroxy-5-[1-({[(2-methoxy-5-methylphenyl)amino]carbonyl}amino)ethyl]thiophene-2-carboxamide]
< 100 nM	C[C@H](NC(=O)c1cc2ccccc2s1)c1ccc(C(=O)NO)s1 [Compound I-21, N-((1S)-1-{5-[(hydroxyamino)carbonyl]-2-thienyl}ethyl)-1-benzothiophene-2-carboxamide]
< 100 nM	CC(NC(=O)Nc1ccccc1Oc1ccccc1)c1ccc(C(=O)NO)s1 (stereo not shown) [Compound I-44, N-hydroxy-5-[1-({[(2-phenoxyphenyl)amino]carbonyl}amino)ethyl]thiophene-2-carboxamide]
